{"source": "patent US10906873B2", "about": "“Substituted cyclic amides as herbicides” (FMC Corporation, priority 2015, dated 2021)", "assay_type_in_all_cases": "in vivo", "key": {"[1]": {"system": "ryegrass, It. (Italian ryegrass, Lolium multiflorum)", "assay": "Test A preemergence, ryegrass, It.", "conditions": "0 to 100 scale", "text": "(§1) Seeds of plant species selected from barnyardgrass (Echinochloa crus-galli), crabgrass (large crabgrass, Digitaria sanguinalis), kochia (Kochia scoparia), ragweed (common ragweed, Ambrosia elatior), morningglory (Ipomoea spp.), velvetleaf (Abutilon theophrasti), ryegrass, It. (Italian ryegrass, Lolium multiflorum), foxtail, giant (giant foxtail, Setaria faberii), wheat (Triticum aestivum), corn (Zea mays), and pigweed (Amaranthus retroflexus), were planted into a blend of loam soil and sand and treated preemergence with a directed soil spray using test chemicals formulated in a non-phytotoxic solvent mixture which included a surfactant. At the same time, plants selected from these crop and weed species and also blackgrass (Alopecurus myosuroides), and galium (catchweed bedstraw, Galium aparine), were planted in pots containing the same blend of loam soil and sand and treated with postemergence applications of test chemicals formulated in the same manner. Plants ranged in height from 2 to 10 cm and were in the one- to two-leaf stage for the postemergence treatment. Treated plants and untreated controls were maintained in a greenhouse for approximately 10 d, after which time all treated plants were compared to untreated controls and visually evaluated for injury. Plant response ratings, summarized in Table A, are based on a 0 to 100 scale where 0 is no effect and 100 is complete control. A dash (-) response means no test result."}, "[2]": {"system": "ducksalad (Heteranthera limosa)", "assay": "Test B flooded paddy test, ducksalad", "conditions": "Flood, scale of 0 to 100 where 0 is no effect and 100 is complete control, 13 to 15 d", "protocol": "(§2) Plant species in the flooded paddy test selected from rice (Oryza sativa), sedge, umbrella (small-flower umbrella sedge, Cyperus difformis), ducksalad (Heteranthera limosa), and barnyardgrass (Echinochloa crus-galli) were grown to the 2-leaf stage for testing. At time of treatment, test pots were flooded to 3 cm above the soil surface, treated by application of test compounds directly to the paddy water, and then maintained at that water depth for the duration of the test. Treated plants and controls were maintained in a greenhouse for 13 to 15 d, after which time all species were compared to controls and visually evaluated. Plant response ratings, summarized in Table B, are based on a scale of 0 to 100 where 0 is no effect and 100 is complete control. A dash (-) response means no test result."}, "[3]": {"system": "blackgrass (Alopecurus myosuroides)", "assay": "Test A postemergence, blackgrass", "conditions": "0 to 100 scale", "text": "as §1"}, "[4]": {"system": "barnyardgrass (Echinochloa crus-galli)", "assay": "Test A postemergence, barnyardgrass", "conditions": "0 to 100 scale", "text": "as §1"}, "[5]": {"system": "barnyardgrass (Echinochloa crus-galli)", "assay": "Test B flooded paddy test, barnyardgrass", "conditions": "Flood, scale of 0 to 100 where 0 is no effect and 100 is complete control, 13 to 15 d", "protocol": "as §2"}, "[6]": {"system": "pigweed (Amaranthus retroflexus)", "assay": "Test A postemergence, pigweed", "conditions": "0 to 100 scale", "text": "as §1"}, "[7]": {"system": "wheat (Triticum aestivum)", "assay": "Test A postemergence, wheat", "conditions": "0 to 100 scale", "text": "as §1"}, "[8]": {"system": "foxtail, giant (giant foxtail, Setaria faberii)", "assay": "Test A preemergence, foxtail, giant", "conditions": "0 to 100 scale", "text": "as §1"}, "kochia (Kochia scoparia) [9]": {"system": "kochia (Kochia scoparia)", "assay": "Test A postemergence, kochia", "conditions": "0 to 100 scale", "text": "as §1"}, "kochia (Kochia scoparia) [10]": {"system": "kochia (Kochia scoparia)", "assay": "Test A preemergence, kochia", "conditions": "0 to 100 scale", "text": "as §1"}, "[11]": {"system": "pigweed (Amaranthus retroflexus)", "assay": "Test A preemergence, pigweed", "conditions": "0 to 100 scale", "text": "as §1"}, "rice (Oryza sativa)": {"system": "rice (Oryza sativa)", "assay": "Test B flooded paddy test, rice", "conditions": "Flood, scale of 0 to 100 where 0 is no effect and 100 is complete control, 13 to 15 d", "protocol": "as §2"}, "[12]": {"system": "ragweed (common ragweed, Ambrosia elatior)", "assay": "Test A postemergence, ragweed", "conditions": "0 to 100 scale", "text": "as §1"}, "[13]": {"system": "galium (catchweed bedstraw, Galium aparine)", "assay": "Test A postemergence, galium", "conditions": "0 to 100 scale", "text": "as §1"}, "[14]": {"system": "ryegrass, It. (Italian ryegrass, Lolium multiflorum)", "assay": "Test A postemergence, ryegrass, It.", "conditions": "0 to 100 scale", "text": "as §1"}, "[15]": {"system": "barnyardgrass (Echinochloa crus-galli)", "assay": "Test A preemergence, barnyardgrass", "conditions": "0 to 100 scale", "text": "as §1"}, "[16]": {"system": "ragweed (common ragweed, Ambrosia elatior)", "assay": "Test A preemergence, ragweed", "conditions": "0 to 100 scale", "text": "as §1"}, "[17]": {"system": "sedge, umbrella (small-flower umbrella sedge, Cyperus difformis)", "assay": "Test B flooded paddy test, sedge, umbrella", "conditions": "Flood, scale of 0 to 100 where 0 is no effect and 100 is complete control, 13 to 15 d", "protocol": "as §2"}, "[18]": {"system": "foxtail, giant (giant foxtail, Setaria faberii)", "assay": "Test A postemergence, foxtail, giant", "conditions": "0 to 100 scale", "text": "as §1"}, "corn (Zea mays)": {"system": "corn (Zea mays)", "assay": "Test A postemergence, corn", "conditions": "0 to 100 scale", "text": "as §1"}}, "data": [{"smiles": "O=C1NCC(Cc2ccc(C(F)(F)F)cc2)C1C(=O)Nc1cccc(F)c1F", "note": "(stereo not drawn) [Compound 7]", "values": [{"measurement": "Plant response rating, Ryegrass, It.", "setting": "[1]; 125 g ai/ha", "value": 0}, {"measurement": "Plant response rating, Ryegrass, It.", "setting": "[1]; 500 g ai/ha", "value": 0}, {"measurement": "Plant response rating, Ducksalad", "setting": "[2]; 500 g ai/ha", "value": 75}, {"measurement": "Plant response rating, Blackgrass", "setting": "[3]; 125 g ai/ha", "value": 0}, {"measurement": "Plant response rating, Blackgrass", "setting": "[3]; 500 g ai/ha", "value": 0}, {"measurement": "Plant response rating, Barnyardgrass", "setting": "[4]; 125 g ai/ha", "value": 0}, {"measurement": "Plant response rating, Barnyardgrass", "setting": "[4]; 500 g ai/ha", "value": 60}, {"measurement": "Plant response rating, Barnyardgrass", "setting": "[5]; 500 g ai/ha", "value": 25}, {"measurement": "Plant response rating, Pigweed", "setting": "[6]; 125 g ai/ha", "value": 0}, {"measurement": "Plant response rating, Pigweed", "setting": "[6]; 500 g ai/ha", "value": 0}, {"measurement": "Plant response rating, Wheat", "setting": "[7]; 125 g ai/ha", "value": 0}, {"measurement": "Plant response rating, Wheat", "setting": "[7]; 500 g ai/ha", "value": 0}, {"measurement": "Plant response rating, Foxtail, Giant", "setting": "[8]; 125 g ai/ha", "value": 0}, {"measurement": "Plant response rating, Foxtail, Giant", "setting": "[8]; 500 g ai/ha", "value": 30}, {"measurement": "Plant response rating, Kochia", "setting": "kochia (Kochia scoparia) [9]; 125 g ai/ha", "value": 0}, {"measurement": "Plant response rating, Kochia", "setting": "kochia (Kochia scoparia) [9]; 500 g ai/ha", "value": 0}, {"measurement": "Plant response rating, Kochia", "setting": "kochia (Kochia scoparia) [10]; 125 g ai/ha", "value": 0}, {"measurement": "Plant response rating, Kochia", "setting": "kochia (Kochia scoparia) [10]; 500 g ai/ha", "value": 0}, {"measurement": "Plant response rating, Pigweed", "setting": "[11]; 125 g ai/ha", "value": 0}, {"measurement": "Plant response rating, Pigweed", "setting": "[11]; 500 g ai/ha", "value": 0}, {"measurement": "Plant response rating, Rice", "setting": "rice (Oryza sativa); 500 g ai/ha", "value": 0}, {"measurement": "Plant response rating, Ragweed", "setting": "[12]; 125 g ai/ha", "value": 0}, {"measurement": "Plant response rating, Ragweed", "setting": "[12]; 500 g ai/ha", "value": 0}, {"measurement": "Plant response rating, Galium", "setting": "[13]; 125 g ai/ha", "value": 0}, {"measurement": "Plant response rating, Galium", "setting": "[13]; 500 g ai/ha", "value": 0}, {"measurement": "Plant response rating, Ryegrass, It.", "setting": "[14]; 125 g ai/ha", "value": 0}, {"measurement": "Plant response rating, Ryegrass, It.", "setting": "[14]; 500 g ai/ha", "value": 0}, {"measurement": "Plant response rating, Barnyardgrass", "setting": "[15]; 125 g ai/ha", "value": 0}, {"measurement": "Plant response rating, Barnyardgrass", "setting": "[15]; 500 g ai/ha", "value": 40}, {"measurement": "Plant response rating, Ragweed", "setting": "[16]; 125 g ai/ha", "value": 0}, {"measurement": "Plant response rating, Ragweed", "setting": "[16]; 500 g ai/ha", "value": 0}, {"measurement": "Plant response rating, Sedge, Umbrella", "setting": "[17]; 500 g ai/ha", "value": 0}, {"measurement": "Plant response rating, Foxtail, Giant", "setting": "[18]; 125 g ai/ha", "value": 0}, {"measurement": "Plant response rating, Foxtail, Giant", "setting": "[18]; 500 g ai/ha", "value": 20}, {"measurement": "Plant response rating, Corn", "setting": "corn (Zea mays); 125 g ai/ha", "value": 0}, {"measurement": "Plant response rating, Corn", "setting": "corn (Zea mays); 500 g ai/ha", "value": 0}]}, {"smiles": "Cc1cccc(C#CC2CNC(=O)C2C(=O)Nc2ccc(F)c(F)c2F)c1", "note": "(stereo not drawn) [Compound 23]", "values": [{"measurement": "Plant response rating, Ryegrass, It.", "setting": "[1]; 125 g ai/ha", "value": 0}, {"measurement": "Plant response rating, Ryegrass, It.", "setting": "[1]; 500 g ai/ha", "value": 0}, {"measurement": "Plant response rating, Ducksalad", "setting": "[2]; 250 g ai/ha", "value": 0}, {"measurement": "Plant response rating, Blackgrass", "setting": "[3]; 125 g ai/ha", "value": 0}, {"measurement": "Plant response rating, Blackgrass", "setting": "[3]; 500 g ai/ha", "value": 0}, {"measurement": "Plant response rating, Barnyardgrass", "setting": "[4]; 125 g ai/ha", "value": 20}, {"measurement": "Plant response rating, Barnyardgrass", "setting": "[4]; 500 g ai/ha", "value": 50}, {"measurement": "Plant response rating, Barnyardgrass", "setting": "[5]; 250 g ai/ha", "value": 0}, {"measurement": "Plant response rating, Pigweed", "setting": "[6]; 125 g ai/ha", "value": 0}, {"measurement": "Plant response rating, Pigweed", "setting": "[6]; 500 g ai/ha", "value": 0}, {"measurement": "Plant response rating, Wheat", "setting": "[7]; 125 g ai/ha", "value": 0}, {"measurement": "Plant response rating, Wheat", "setting": "[7]; 500 g ai/ha", "value": 0}, {"measurement": "Plant response rating, Foxtail, Giant", "setting": "[8]; 125 g ai/ha", "value": 40}, {"measurement": "Plant response rating, Foxtail, Giant", "setting": "[8]; 500 g ai/ha", "value": 80}, {"measurement": "Plant response rating, Kochia", "setting": "kochia (Kochia scoparia) [9]; 125 g ai/ha", "value": 0}, {"measurement": "Plant response rating, Kochia", "setting": "kochia (Kochia scoparia) [9]; 500 g ai/ha", "value": 20}, {"measurement": "Plant response rating, Kochia", "setting": "kochia (Kochia scoparia) [10]; 125 g ai/ha", "value": 0}, {"measurement": "Plant response rating, Kochia", "setting": "kochia (Kochia scoparia) [10]; 500 g ai/ha", "value": 0}, {"measurement": "Plant response rating, Pigweed", "setting": "[11]; 125 g ai/ha", "value": 0}, {"measurement": "Plant response rating, Pigweed", "setting": "[11]; 500 g ai/ha", "value": 0}, {"measurement": "Plant response rating, Rice", "setting": "rice (Oryza sativa); 250 g ai/ha", "value": 0}, {"measurement": "Plant response rating, Ragweed", "setting": "[12]; 125 g ai/ha", "value": 0}, {"measurement": "Plant response rating, Ragweed", "setting": "[12]; 500 g ai/ha", "value": 0}, {"measurement": "Plant response rating, Galium", "setting": "[13]; 125 g ai/ha", "value": 0}, {"measurement": "Plant response rating, Galium", "setting": "[13]; 500 g ai/ha", "value": 20}, {"measurement": "Plant response rating, Ryegrass, It.", "setting": "[14]; 125 g ai/ha", "value": 0}, {"measurement": "Plant response rating, Ryegrass, It.", "setting": "[14]; 500 g ai/ha", "value": 0}, {"measurement": "Plant response rating, Barnyardgrass", "setting": "[15]; 125 g ai/ha", "value": 60}, {"measurement": "Plant response rating, Barnyardgrass", "setting": "[15]; 500 g ai/ha", "value": 80}, {"measurement": "Plant response rating, Ragweed", "setting": "[16]; 125 g ai/ha", "value": 0}, {"measurement": "Plant response rating, Ragweed", "setting": "[16]; 500 g ai/ha", "value": 0}, {"measurement": "Plant response rating, Sedge, Umbrella", "setting": "[17]; 250 g ai/ha", "value": 0}, {"measurement": "Plant response rating, Foxtail, Giant", "setting": "[18]; 125 g ai/ha", "value": 20}, {"measurement": "Plant response rating, Foxtail, Giant", "setting": "[18]; 500 g ai/ha", "value": 50}, {"measurement": "Plant response rating, Corn", "setting": "corn (Zea mays); 125 g ai/ha", "value": 0}, {"measurement": "Plant response rating, Corn", "setting": "corn (Zea mays); 500 g ai/ha", "value": 0}]}]}
